In test [1] the target is T1, MMP-2 (Homo sapiens, UniProt P08253).
T1 construct: La proMMP-2 recombinante (12,5 ng/mL) est activée par l'APMA 10 mM pendant 16 heures à 4°C
T1 sequence (P08253 110-660): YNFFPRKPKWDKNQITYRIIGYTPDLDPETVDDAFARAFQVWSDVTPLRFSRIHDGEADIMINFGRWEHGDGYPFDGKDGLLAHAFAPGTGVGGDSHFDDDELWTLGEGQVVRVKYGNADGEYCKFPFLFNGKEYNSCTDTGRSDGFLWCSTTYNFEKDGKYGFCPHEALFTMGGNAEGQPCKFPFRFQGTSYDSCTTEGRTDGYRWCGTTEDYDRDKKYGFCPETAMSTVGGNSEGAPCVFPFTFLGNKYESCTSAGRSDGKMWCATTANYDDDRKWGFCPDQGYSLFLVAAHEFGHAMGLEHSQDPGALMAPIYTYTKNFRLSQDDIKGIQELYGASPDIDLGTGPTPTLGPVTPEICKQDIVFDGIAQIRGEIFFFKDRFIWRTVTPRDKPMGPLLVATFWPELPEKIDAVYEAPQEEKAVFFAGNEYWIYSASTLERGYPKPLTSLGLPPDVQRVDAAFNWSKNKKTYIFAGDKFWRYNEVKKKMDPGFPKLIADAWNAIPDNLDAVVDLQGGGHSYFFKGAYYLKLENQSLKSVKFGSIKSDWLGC
The test is described as follows: MMP-2 activity on fluorescent synthetic substrate. Format: biochemical. The settings on record: 25 µg/mL. An excerpt: L'inhibition de l'activité des gélatinases MMP-2 et MMP-9 par les acides gras insaturés à longue chaîne a pu être montré sur des coupes de peau. Ce phénomène implique à la fois des domaines spécifiques des gélatinases : les "Collagen Binding Domain" (CBD) et la double liaison des acides gras. L'interaction entre les gélatinases, via ces sites particuliers que sont les exosites (CBD), et l'acide gras, via son insaturation, entraîne une perte d'activité des gélatinases in vitro comme in vivo. La présence de double liaisons au niveau des chaînes latérales de ces glycolipides a conduit à cribler l'ensemble des composés de l'invention sur l'activité de la gélatinase-A ou MMP-2, car cette enzyme, bien qu'elle ne soit pas surexprimée au cours des vieillissements par les cellules dermiques, participe à la dégradation du tissu élastique responsable de la formation de rides. […]
La proMMP-2 recombinante (12,5 ng/mL) est activée par l'APMA 10 mM pendant 16 heures à 4°C puis préincubée 10 min en présence des différentes fractions et composés à tester : le substrat synthétique spécifique de la MMP-2 (Référence : M-1895, Bachem) est ensuite ajouté, à la concentration de 2 µM. Le clivage de ce substrat est estimé par mesure de la fluorescence émise après clivage (λexc = 326 nm; λem = 465 nm), à raison d'une lecture toutes les 2 minutes pendant 30 minutes. […]

For test [2], the target named is T2, plasmine humaine (Homo sapiens, UniProt P00747).
T2 construct: connus pour interagir avec la plasmine via son domaine kringle V; testé in vitro sur l'activité amidolytique de la plasmine à l'aide d'un substrat synthétique (S-2251, Chromogénix)
In words: amidolytic activity of plasmin on synthetic substrate S-2251. The class given is biochemical. The method, then: L'effet de ces différentes fractions et produits purs a donc été testé in vitro sur l'activité amidolytique de la plasmine à l'aide d'un substrat synthétique (S-2251, Chromogénix).
Les fractions ou composés purs issus de l'extraction sont solubilisés avant utilisation dans du diméthylsulfoxyde (DMSO) à une concentration de stockage de 20 mg/mL. La conservation est effectuée à -80°C. 12 nM de plasmine humaine sont pré-incubés en absence et en présence de concentrations croissantes (0 à 200 µg/mL) des différentes fractions et produits dans un tampon Tris-HCl 100 mM pH 7,5. La réaction est déclenchée par addition de 0,3 mM de S-2251. L'hydrolyse du S-2251 est suivie par mesure de l'absorbance du para-nitroaniline à 405 nm. La courbe représentant les variations d'absorbance en fonction du temps est tracée et la vitesse initiale de la réaction est déterminée par calcul de la pente de la tangente à l'origine. Le rapport Vi/Vo est calculé, où Vo représente la vitesse initiale en absence d'effecteur et Vi cette vitesse en présence d'un effecteur, et la courbe Vi/Vo en fonction de la concentration en en glycolipides est tracée.

Test [3] deals with kératinocytes et fibroblastes dermiques. In words: degradation of a fluorescein-labelled type I collagen layer in a UV-A skin photo-ageing co-culture model. To be noted: 10 J.cm^-2 UV-A, 15 µg/mL plasminogen, 48 h, versus control without active, read-out: inhibition de ce "vieillissement cutané" (dégradation du tapis de collagène). The class given is cell-based.

T2 sequence (P00747 97-580 limits assumed): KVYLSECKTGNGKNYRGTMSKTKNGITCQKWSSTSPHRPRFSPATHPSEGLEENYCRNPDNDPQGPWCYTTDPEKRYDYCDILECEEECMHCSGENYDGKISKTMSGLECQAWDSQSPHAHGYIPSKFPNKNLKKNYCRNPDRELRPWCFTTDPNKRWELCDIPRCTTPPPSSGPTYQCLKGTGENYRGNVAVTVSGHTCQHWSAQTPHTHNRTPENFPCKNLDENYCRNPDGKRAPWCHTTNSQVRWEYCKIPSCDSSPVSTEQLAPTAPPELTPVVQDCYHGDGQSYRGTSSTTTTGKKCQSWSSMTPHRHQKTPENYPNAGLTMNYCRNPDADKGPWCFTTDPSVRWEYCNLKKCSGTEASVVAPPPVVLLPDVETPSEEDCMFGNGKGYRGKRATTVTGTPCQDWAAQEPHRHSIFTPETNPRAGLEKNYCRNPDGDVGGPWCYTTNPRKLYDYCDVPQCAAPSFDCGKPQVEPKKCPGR
T2 sequence (P00747 581-810 limits assumed): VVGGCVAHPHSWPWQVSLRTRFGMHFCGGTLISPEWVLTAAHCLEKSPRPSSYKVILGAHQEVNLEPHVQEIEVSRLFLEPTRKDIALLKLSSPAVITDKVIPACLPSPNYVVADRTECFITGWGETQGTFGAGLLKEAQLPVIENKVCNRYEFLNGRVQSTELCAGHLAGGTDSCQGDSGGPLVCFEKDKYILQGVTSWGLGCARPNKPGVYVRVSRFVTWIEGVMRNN

For the compound `CCCCC/C=C\C/C=C\CCCCCCCCOC[C@H](CO[C@@H]1O[C@H](COC(=O)CCCCCCCCCCCCCCC)[C@H](O)[C@H](O)[C@H]1O)OCCCCCCCC/C=C\C/C=C\CCCCC` [ED23-11, 1,2-di-O-linoléyl-3-O-[6'-O-palmitoyl-β-D-galactopyranosyl]-sn-glycérol], the “MMP-2 (Vi/Vo)” value in test [1] is recorded as > 1. Further, the “Plasmine (Vi/Vo)” value in test [2] (25 µg/mL, 12 nM plasmin, 0,3 mM S-2251) is 2,11 ± 0,16. For the same compound, the “Action sur l'activité de la plasmme (Vi/V0) à isoconcentration” value in test [2] (at isoconcentration) is given as 8,44. In addition, the “Augmentation d'activité” value in test [2] (plasmin amidolytic activity, increase from one fractionation step to the next) is 2,36. Also, the inhibition at 25 µg/mL in test [3] was 70%.

A word on the inhibition: it is the percentage by which the read-out fell short of the control.
